Data taken from publication PMC8151276, “An Integrated Approach toward NanoBRET Tracers for Analysis of GPCR Ligand Engagement” (Molecules, 2021).

Target: T1, ADRA2A (Homo sapiens, UniProt P08913)
T1 construct: purchased Promega (in-house HiBiT-GPCR construct library, NanoBRET)
T1 sequence (P08913 1-465): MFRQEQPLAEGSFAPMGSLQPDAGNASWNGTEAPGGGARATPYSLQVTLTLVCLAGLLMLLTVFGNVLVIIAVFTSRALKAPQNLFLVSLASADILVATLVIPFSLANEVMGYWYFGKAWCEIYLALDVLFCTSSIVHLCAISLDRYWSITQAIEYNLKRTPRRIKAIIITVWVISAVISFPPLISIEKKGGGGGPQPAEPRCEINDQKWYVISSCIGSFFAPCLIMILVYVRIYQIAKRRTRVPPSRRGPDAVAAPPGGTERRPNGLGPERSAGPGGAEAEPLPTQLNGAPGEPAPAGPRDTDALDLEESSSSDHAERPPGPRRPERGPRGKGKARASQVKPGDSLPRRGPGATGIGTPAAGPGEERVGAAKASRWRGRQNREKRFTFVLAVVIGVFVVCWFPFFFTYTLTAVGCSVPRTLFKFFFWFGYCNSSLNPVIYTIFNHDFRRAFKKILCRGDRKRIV
Experiment: NanoBRET screen HiBiT-ADRA2A in HEK293
Format: binding
Experimental: Each tracer candidate was screened across the entire library of HiBiT-GPCR constructs using NanoBRET as the detection modality. As depicted in Figure 4A, the specificity of interactions was evaluated through decrease in BRET due to competitive displacement of a bound tracer by excess parental compound. Each tracer was analyzed for binding to each HiBiT-GPCR fusion in the absence and in the presence of competing parental compound. Briefly, HEK293 cells were transfected with HiBiT-GPCR constructs diluted into promoterless DNA to reduce expression and maximize translocation to the cell surface. Each tracer candidate was then screened at concentrations of 1 μM and 0.1 μM across cells expressing these fusions. Cells were treated for 1.5 h with tracer either alone or in the presence of 20 μM competing parental compound (i.e., control). BRET was measured upon addition of purified LgBiT and subsequent complementation with HiBiT genetically fused to a GPCR. The specificity of interactions was assessed through a decrease in BRET signal due to competitive displacement of the bound tracer. To further gauge the robustness of these interactions, the fold response over the control (i.e., BRETtracer/BRETcontrol) was calculated. We chose a 1.5-fold response, which translates to ≥7-fold signal over noise as the minimal threshold required to score an interaction as positive.
HiBiT-GPCR DNA constructs were diluted in 10 mM Tris pH 8 to a final concentration of 0.01 μg/μL, arrayed in 96-well plates and stored at −20 °C. For transfection, HEK293 cells were suspended in Opti-MEM (without phenol red) supplemented with 2% fetal bovine serum (Seradigm) and 100 units/mL penicillin–streptomycin (Gibco) at a final concentration of 220,000 cells/mL and dispensed into white 96-well plates at 90 μL/well. Subsequent transfections and screens were carried using an Agilent Bravo Automated Liquid Handling Platform. First, the 96-well HiBiT DNA arrays were diluted 25-fold in Opti-MEM (without serum or phenol red) to a final concentration of 0.0004 μg/μL and 20 μL of the diluted DNAs were transferred into new 96-well plates. Next, promoterless carrier DNA (1 μg/μL) was diluted 25-fold (0.04 μg/μL) and then dispensed into the diluted arrays at 20 μL/well. Following brief mixing, Viafect transfection reagent (Promega) diluted 16-fold into Opti-MEM was dispensed into the plates at 40 μL/well. After mixing by pipetting, plates were incubated for 10 min on the pipetting station deck. The DNA-transfection reagent complexes were then added to plates containing cells. To facilitate the screen, 10 μL of DNA-transfection reagent complexes were added in duplicates to the top 4 and bottom 4 rows, resulting in two identical 48-well arrays per plate. Plates with transfected cells were incubated for 18–20 h at 37 °C/5% CO2. A screen of each tracer across the entire library using two different concentrations requires duplicate plates of transfected cells. Depending on the number of tracers being screened, transfections can be scaled up using the same ratios. The next day, for each tracer, four 20× screening solutions in tracer dilution buffer (Promega) were prepared: two duplicates at final concentration of 20 μM and two duplicates at a final concentration of 2 μM. […] The four resulting solutions were diluted 4-fold in Opti-MEM without serum or phenol red to generate 5× solutions (5 µM and 0.5 µM tracer +/− 100 μM competing compound). To screen the library, a BioTek MultiFlo FX liquid dispenser was used to dispense 22.5 µL of tracer solution to the top 4 rows and 22.5 µL tracer + competing compound solution to the 4 bottom rows. Plates were briefly mixed on an orbital shaker and incubated for 1.5 h at room temperature. […] Plates were briefly mixed on an orbital shaker and incubated for 15 min to allow complementation.

Structure (SMILES): COc1ccc2c(n1)c(CCNC(C)=O)cn2CCNC(=O)CCc1ccc2n1[B-](F)(F)[N+]1=C(c3ccc[nH]3)C=CC1=C2 [Azamelatonin-1-NB590]
- NanoBRET Fold Response (0.1μM tracer): 1.08
- NanoBRET Fold Response (1μM tracer): 1.01

Structure (SMILES): CC(C)N(CC[C@H](c1ccccc1)c1cc(CCNC(=O)c2ccc(CNC(=O)CCc3ccc4n3[B-](F)(F)[N+]3=C(c5ccc[nH]5)C=CC3=C4)cc2)ccc1O)C(C)C [Tolterodine-BZ-NB590]
- NanoBRET Fold Response (ADRA2A, tracer 0.1μM): 1.08
- NanoBRET Fold Response (ADRA2A, tracer 1μM): 1.07

Structure (SMILES): O=C(CCc1ccc2n1[B-](F)(F)[N+]1=C(c3ccc[nH]3)C=CC1=C2)NCCOCCOCCNC(=O)OCCOCCN1CCN(C2=Nc3ccccc3Sc3ccccc32)CC1 [Quetiapine-a-2-NB590]
- NanoBRET Fold Response (ADRA2A, tracer 0.1μM): 1.10
- NanoBRET Fold Response (ADRA2A, tracer 1μM): 1.22

Structure (SMILES): Cc1cc2c(s1)Nc1ccccc1N=C2N1CCN(CCCNC(=O)CCOCCOCCOCCOCCNC(=O)CCc2ccc3n2[B-](F)(F)[N+]2=C(c4ccc[nH]4)C=CC2=C3)CC1 [Olanzapine-a-2-NB590]
- NanoBRET Fold Response (ADRA2A, tracer 0.1μM): 1.00
- NanoBRET Fold Response (ADRA2A, tracer 1μM): 1.04

Structure (SMILES): O=C(CCc1ccc2n1[B-](F)(F)[N+]1=C(c3ccc[nH]3)C=CC1=C2)NCc1ccc(C(=O)NCCOCCOCCNCC(O)COc2cccc3ccccc23)cc1 (stereo not drawn) [Propranolol-3-NB590]
- NanoBRET Fold Response (ADRA2A, 0.1μM): 1.04
- NanoBRET Fold Response (ADRA2A, 1μM): 1.06

Structure (SMILES): N#CN/C(=N\CCNC(=O)c1ccc(N)cc1)NCCCOc1cccc(CN2CCCCC2)c1 [Aminopotentidine (unmodified)]
- NanoBRET Fold Response (ADRA2A, other tracers/Aminopotentidine (unmodified), 0.1μM): 1.01
- NanoBRET Fold Response (ADRA2A, other tracers/Aminopotentidine (unmodified), 1μM): 1.67

Structure (SMILES): O=C(CCc1ccc2n1[B-](F)(F)[N+]1=C(c3ccc[nH]3)C=CC1=C2)NCc1ccc(C(=O)NCCOCCC(=O)N[C@@H]2CC[C@@]3(O)[C@H]4Cc5ccc(O)c6c5[C@@]3(CCN4CC3CC3)[C@H]2O6)cc1 [Naltrexone-3-NB590]
- NanoBRET Fold Response (ADRA2A, tracer 0.1μM): 1.12
- NanoBRET Fold Response (ADRA2A, tracer 1μM): 0.92

Structure (SMILES): CC(C)N(CC[C@H](c1ccccc1)c1cc(CCNC(=O)CCOCCOCCOCCOCCNC(=O)CCc2ccc3n2[B-](F)(F)[N+]2=C(c4ccc[nH]4)C=CC2=C3)ccc1O)C(C)C [Tolterodine-2-NB590]
- NanoBRET Fold Response (ADRA2A, tracer 0.1μM): 1.00
- NanoBRET Fold Response (ADRA2A, tracer 1μM): 1.02

Structure (SMILES): Cc1nc2n(c(=O)c1CCN1CCC(c3noc4cc(F)ccc34)CC1)CCCC2OC(=O)NCCOCCOCCOCCOCCNC(=O)CCc1ccc2n1[B-](F)(F)[N+]1=C(c3ccc[nH]3)C=CC1=C2 (stereo not drawn) [Risperidone-2-NB590]
- NanoBRET Fold Response (ADRA2A, tracer 0.1μM): 1.29
- NanoBRET Fold Response (ADRA2A, tracer 1μM): 2.34

Structure (SMILES): O=C(CCOCCOCCOCCOCCNC(=O)CCc1ccc2n1[B-](F)(F)[N+]1=C(c3ccc[nH]3)C=CC1=C2)NCCCN1CCN(C2=Nc3cc(Cl)ccc3Nc3ccccc32)CC1 [Clozapine-a-2-NB590]
- NanoBRET Fold Response (ADRA2A, 0.1μM tracer): 1.27
- NanoBRET Fold Response (ADRA2A, 1μM tracer): 1.78

Structure (SMILES): COc1ccc2[nH]c(-c3ccc(CNC(=O)CCOCCOCCOCCOCCNC(=O)CCc4ccc5n4[B-](F)(F)[N+]4=C(c6ccc[nH]6)C=CC4=C5)cc3)c(CCNC(C)=O)c2n1 [AzomelatoninICO9-2-NB590]
- NanoBRET Fold Response (0.1μM tracer): 1.01
- NanoBRET Fold Response (1μM tracer): 1.06

Structure (SMILES): COc1ccccc1N1CCN(CCCCN2C(=O)c3ccc(CNC(=O)CCOCCNC(=O)c4ccc(CNC(=O)CCc5ccc6n5[B-](F)(F)[N+]5=C(c7ccc[nH]7)C=CC5=C6)cc4)cc3C2=O)CC1 [NAN-190-3-NB590]
- NanoBRET Fold Response (ADRA2A, tracer 0.1μM): 2.11
- NanoBRET Fold Response (ADRA2A, tracer 1μM): 2.92

Structure (SMILES): N#CN=C(NCCCOc1cccc(CN2CCCCC2)c1)NCCNC(=O)CCOCCOCCOCCOCCNC(=O)CCc1ccc2n1[B-](F)(F)[N+]1=C(c3ccc[nH]3)C=CC1=C2 [Aminopotentidine-2-NB590]
- NanoBRET Fold Response (ADRA2A, tracer 0.1μM): 1.04
- NanoBRET Fold Response (ADRA2A, tracer 1μM): 1.26

Structure (SMILES): CN(C)CCC=C1c2ccccc2CCc2ccc(C(=O)NCCNC(=O)CCOCCOCCOCCOCCNC(=O)CCc3ccc4n3[B-](F)(F)[N+]3=C(c5ccc[nH]5)C=CC3=C4)cc21 [Amitriptyline-b-2-NB590]
- NanoBRET Fold Response (tracer at 0.1μM, listed as amitriptyline-b-2-NB590): 1.11
- NanoBRET Fold Response (tracer at 1μM, listed as amitriptyline-b-2-NB590): 1.00

Structure (SMILES): COc1ccccc1N1CCN(CCCCN2C(=O)c3ccc(CNC(=O)CCOCCOCCOCCOCCNC(=O)CCc4ccc5n4[B-](F)(F)[N+]4=C(c6ccc[nH]6)C=CC4=C5)cc3C2=O)CC1 [NAN-190-2-NB590]
- NanoBRET Fold Response (ADRA2A, tracer 0.1μM): 2.17
- NanoBRET Fold Response (ADRA2A, tracer 1μM): 3.08

Structure (SMILES): O=C(CCOCCOCCOCCOCCNC(=O)CCc1ccc2n1[B-](F)(F)[N+]1=C(c3ccc[nH]3)C=CC1=C2)NCCCN1CCN(C2=Nc3ccccc3Oc3ccc(Cl)cc32)CC1 [Loxapine-a-2-NB590]
- NanoBRET Fold Response (ADRA2A, tracer 0.1μM): 0.99
- NanoBRET Fold Response (ADRA2A, tracer 1μM): 1.02

Structure (SMILES): CN(CCC=C1c2ccccc2CCc2ccccc21)C(=O)CCOCCOCCOCCOCCNC(=O)CCc1ccc2n1[B-](F)(F)[N+]1=C(c3ccc[nH]3)C=CC1=C2 [Amitriptyline-e-2-NB590]
- NanoBRET Fold Response (tracer at 1μM): 1.09

Structure (SMILES): CCCn1c(=O)c2[nH]c(-c3ccc(OCC(=O)NCCNC(=O)CCOCCNC(=O)c4ccc(CNC(=O)CCc5ccc6n5[B-](F)(F)[N+]5=C(c7ccc[nH]7)C=CC5=C6)cc4)cc3)nc2n(CCC)c1=O [XAC-3-NB590]
- NanoBRET Fold Response (ADRA2A, tracer 0.1μM): 0.97
- NanoBRET Fold Response (ADRA2A, tracer 1μM): 1.11

Structure (SMILES): CN(C)CCC=C1c2ccccc2CCc2ccc(C(=O)NCCNC(=O)CCOCCOCCOCCOCCNC(=O)CCc3ccc4n3[B-](F)(F)[N+]3=C(c5ccc[nH]5)C=CC3=C4)cc21 [Amitriptyline-a-2-NB590]
- NanoBRET Fold Response (tracer at 0.1μM): 1.03
- NanoBRET Fold Response (tracer at 1μM): 1.12

Structure (SMILES): CCOC(=O)c1cc(C#N)c(N2CCC(C(=O)NS(=O)(=O)Cc3ccccc3/C=C/C(=O)NCCNC(=O)CCc3ccc4n3[B-](F)(F)[N+]3=C(c5ccc[nH]5)C=CC3=C4)CC2)nc1C [AZD1283-1-NB590]
- NanoBRET Fold Response (ADRA2A, 0.1μM): 1.04
- NanoBRET Fold Response (ADRA2A, 1μM): 1.13
